# What was measured:
# TGF-beta receptor type-1 [1] = biological target: T1, TGF-beta receptor type-1 (Homo sapiens, UniProt P36897); experiment: In vitro inhibition of transforming growth factor- beta dependent luciferase growth in mouse fibroblasts (NIH 3T3); type: functional; settings: target entry is the homologue from another species
# T1 sequence (P36897 whole entry): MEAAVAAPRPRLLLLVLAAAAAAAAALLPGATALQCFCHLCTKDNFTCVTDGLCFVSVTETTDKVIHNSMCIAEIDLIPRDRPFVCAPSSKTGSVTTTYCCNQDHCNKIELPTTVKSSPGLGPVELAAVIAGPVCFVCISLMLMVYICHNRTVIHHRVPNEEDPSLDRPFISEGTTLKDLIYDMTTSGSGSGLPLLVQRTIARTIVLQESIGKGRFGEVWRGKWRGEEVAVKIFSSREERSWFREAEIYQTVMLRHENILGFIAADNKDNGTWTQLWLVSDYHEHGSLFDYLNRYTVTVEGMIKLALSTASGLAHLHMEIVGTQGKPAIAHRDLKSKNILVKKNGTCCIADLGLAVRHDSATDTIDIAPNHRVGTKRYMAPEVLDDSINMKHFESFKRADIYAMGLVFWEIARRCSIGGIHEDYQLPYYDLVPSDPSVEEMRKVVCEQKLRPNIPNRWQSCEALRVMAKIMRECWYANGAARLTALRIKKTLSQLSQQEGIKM
# TGF-beta receptor type-1 [2] = biological target: T1, TGF-beta receptor type-1; experiment: In vitro inhibition of transforming growth factor- beta dependent luciferase production in mink lung cells (p3TP Lux); type: functional, cell-based
# [3] = biological target: Mitogen-activated protein kinase 14 (Homo sapiens, UniProt Q16539); experiment: In vitro inhibitory activity against Mitogen-activated protein kinase p38
# TGF-beta receptor type-1 [4] = biological target: T1, TGF-beta receptor type-1; experiment: In vitro inhibitory activity against human Transforming growth factor beta-1 receptor kinase (TGF-beta RIK)
# Sequence of Mitogen-activated protein kinase 14 (Q16539 whole entry): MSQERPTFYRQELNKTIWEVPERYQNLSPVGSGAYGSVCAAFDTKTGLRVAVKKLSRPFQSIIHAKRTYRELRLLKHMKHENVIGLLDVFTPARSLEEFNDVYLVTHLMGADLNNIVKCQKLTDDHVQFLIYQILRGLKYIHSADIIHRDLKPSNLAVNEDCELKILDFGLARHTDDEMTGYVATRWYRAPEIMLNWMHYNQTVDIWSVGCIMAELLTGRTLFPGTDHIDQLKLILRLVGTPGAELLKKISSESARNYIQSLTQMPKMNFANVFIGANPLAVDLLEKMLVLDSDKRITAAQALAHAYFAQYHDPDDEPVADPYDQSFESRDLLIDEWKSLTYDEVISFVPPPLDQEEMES
IC50 (TGF-beta receptor type-1 [1]) [nM],IC50 (TGF-beta receptor type-1 [2]) [nM],IC50 [3] [nM],IC50 (TGF-beta receptor type-1 [4]) [nM],Compound
2160,3370,> 20000,543,Cc1cccc(-c2n[nH]cc2-c2ccccc2)n1
538,94,280,203,c1ccc(-c2n[nH]c(C3CC3)c2-c2ccnc3ccccc23)nc1
76,94,1300,91,Fc1ccc(-c2n[nH]cc2-c2ccnc3ccccc23)nc1
2590,3530,6800,275,Fc1ccc(-c2c[nH]nc2-c2ccccn2)cc1
524,355,6.8,217,FC(F)(F)c1cccc(-c2n[nH]cc2-c2ccnc3ccccc23)c1
32,44,560,31,Cc1cccc(-c2n[nH]cc2-c2ccc(O)cc2)n1
1340,399,510,369,c1ccc(Cn2cc(-c3ccnc4ccccc34)c(-c3ccccn3)n2)cc1
61,47,5400,44,COc1ccc(-c2cn(C)nc2-c2cccc(C)n2)cc1
9540,> 9000,> 20000,3990,c1ccc(-c2c[nH]nc2-c2ccccn2)cc1
421,551,> 20000,57,Cc1cccc(-c2[nH]ncc2-c2ccc(Cl)cc2)n1
7.1,2.9,78,34,Cc1cccc(-c2n[nH]cc2-c2ccnc3ccccc23)n1
683,788,> 20000,151,Cc1cccc(-c2[nH]ncc2-c2ccc(F)c(F)c2)n1
41,139,> 20000,70,Cc1cccc(-c2n[nH]cc2-c2ccc(F)cc2)n1
4670,> 10000,2300,1760,Clc1ccc(-c2n[nH]cc2-c2ccnc3ccccc23)nc1
2810,1660,400,353,c1csc(-c2n[nH]cc2-c2ccnc3ccccc23)c1
148,24,250,82,Cc1cccc(-c2n[nH]c(C)c2-c2ccnc3ccccc23)n1
2920,1200,25,382,c1ccc(-c2n[nH]cc2-c2ccnc3ccccc23)cc1

Compound,IC50 (TGF-beta receptor type-1 [1]) [nM],IC50 (TGF-beta receptor type-1 [2]) [nM],IC50 [3] [nM],IC50 (TGF-beta receptor type-1 [4]) [nM]
c1ccc(-c2n[nH]cc2-c2ccnc3ccccc23)nc1,–,–,740,–
c1ccc(-c2c[nH]nc2-c2ccnc3ccccc23)nc1,1680,683,7700,150
Brc1cccc(-c2n[nH]cc2-c2ccnc3ccccc23)n1,1.2,2.9,110,31

# Source: ChEMBL document CHEMBL1145076, “Synthesis and activity of new aryl- and heteroaryl-substituted pyrazole inhibitors of the transforming growth factor-beta type I receptor kinase domain” (J Med Chem, 2003)
